What was measured:
RAW-Blue cells = experiment: NF-κB activation (SEAP, Quanti-Blue) by CL or LPS in RAW-Blue cells; format: cell-based, murine; conditions: CL alone, overnight
Protocol: RAW-Blue™ cells were seeded the day before the experiment at 5 × 10^5 cells/mL in 48-well plates (500 μL/well).
These cells express a secreted embryonic alkaline phosphatase (SEAP) when NF-κB is activated. NF-κB activation was measured by measuring the alkaline phosphatase produced by RAW-Blue™ cells using the Quanti-Blue™ reagent (InvivoGen), according to the manufacturer’s instructions.
(§1) Fig. 3 Saturated but not unsaturated CLs have pro-inflammatory properties. a RAW-Blue™ cells were incubated overnight with the indicated amount of CL or LPS, supernatants were collected, and NF-κB activation quantified via Quanti-Blue™ test and reported here as fold induction as compared to control. Unpaired t test: differences with respect to the control (Ctrl) are not significant if p > 0.05 (no symbol); *p ≤ 0.0007. b Immortalized BMDM cells were incubated overnight with the indicated amount of CL or LPS; supernatants were collected and TNF-α quantified via ELISA assay. c, d Primary human monocytes were incubated overnight with the indicated amount of CL or LPS with or without the NLRP3 inhibitor MCC950, supernatants were collected, and TNF-α and IL-1β were quantified via ELISA assay. Graphs are representative of experiments from six different donors. Unpaired t test: differences with respect to the control (Ctrl) are not significant if p > 0.05 (no symbol); *p ≤ 0.021. Each bar represents the mean + standard deviation of three biological replicates (n = 3). Graphs are representative of at least three independent experiments

immortalized BMDMs = experiment: TNF-α secretion in immortalized BMDMs (WT or TLR4-KO) incubated with CL or LPS; format: cell-based, murine; conditions: overnight; for TNF-α secretion: CL alone, immortalized BMDM
Protocol: Immortalized BMDM were seeded the day before the experiment at 5 × 10^5 cells/mL in 48-well plates (500 μL/well).
(§2) After stimulation, supernatants were collected, centrifuged, and assayed for cytokine secretion, while cells were assayed for viability.
(§3) TNF-α and IP-10 were quantified in cell supernatants using DuoSet ELISA kits from R&D Systems and human IL-1β using Instant ELISA™ Kit from Invitrogen, according to the manufacturer’s instructions. Absorbance was read with a BioTek Synergy HT Microplate Readers.
as §1
Fig. 4 Saturated CLs are TLR4 agonists. a HEK293 cells were transfected with plasmids encoding murine TLR4, MD2, and CD14 (mTLR4), human TLR4, MD2, and CD14 (hTLR4) or with empty pcDNA3.1 plasmid, MD2 and CD14 (w/o TLR) together with a luciferase reporter plasmid dependent on NF-κB activation and a constitutively active reporter vector-encoding renilla luciferase. Two days after transfection, cells were incubated for 6 h with medium alone (Ctrl) or the indicated amount of CLs or LPS. Luciferase and renilla were quantified in cell lysate, normalized and reported here as fold induction as compared to control. Unpaired t test: differences compared to the control are not significant if p > 0.05(no symbol); *p ≤ 0.005. b WT and TLR4-KO iBMDM cells were incubated overnight with medium (c), LPS or C14:0 CL. For each condition, mTNF-α was measured by ELISA assay. Unpaired t test: differences with respect to the control are not significant if p > 0.05(no symbol); *p ≤ 0.0001. Each bar represents the mean + standard deviation of three biological replicates (n = 3). Graphs are representative of at least three independent experiments

primary human monocytes = experiment: TNF-α and IL-1β secretion in primary human monocytes incubated with CL; format: cell-based; conditions: CL alone, overnight
Protocol: Human monocytes were isolated from PBMCs by immunomagnetic negative selection using the EasySep™ human monocyte enrichment kit without CD16 depletion (STEMCELL™ Technologies).
100.000 of freshly isolated PBMCs or monocytes were mixed with stimulants to a final volume of 160 μL/well in round bottom 96-well plates.
as §2, §3, §1
C18:0 and C18:2 CLs’ pro-inflammatory activities were validated in primary monocytes isolated from human donor blood. C18:0 CL but not C18:2 CL reproduced LPS activity inducing TNF-α and IL-1β secretion in a dose-dependent manner (Fig. 3c, d).

primary BMDM cells = experiment: TNF-α and IP-10 secretion in primary BMDMs incubated with CL or LPS alone; format: cell-based, murine; conditions: overnight
Protocol: Bone marrow was isolated from femurs and tibias of 10-week-old C57BL/6 mice killed by cervical dislocation. Briefly, bone marrow was flushed out with a syringe filled with DMEM, pelleted down, and resuspended and homogenized in complete medium (DMEM supplemented with 10% heat-inactivated FBS from South America, 2 mM glutamine, 50 U/mL penicillin, 50 μg/mL streptomycin, and 20% of supernatant taken from L929 cells). The cell suspension generated thereafter was then maintained in petri dishes for 7 days.
Primary BMDM cells were detached from petri dishes and seeded the day before the experiment in 96-well plates at 0.75 × 10^6 cells/mL (200 μL/well).
as §2
TNF-α and IP-10 were quantified in cell supernatants using DuoSet ELISA kits from R&D Systems and human IL-1β using Instant ELISA™ Kit from Invitrogen, according to the manufacturer’s instructions. Absorbance was read with a BioTek Synergy HT Microplate Readers. […]
Primary BMDM cells were incubated overnight with medium (ctrl) or C14:0 CL at the indicated concentrations. TNF-α and IP-10 were measured by ELISA in collected supernatants. […]

| SMILES | NF-κB activation (RAW-Blue cells) | TNF-α secretion (immortalized BMDMs) | IL-1β secretion (primary human monocytes) | TNF-α secretion (primary human monocytes) | TNF-α secretion in WT iBMDMs (immortalized BMDMs; wild-type) | IP-10 secretion (primary BMDM cells) | TNF-α secretion (primary BMDM cells) |
| --- | --- | --- | --- | --- | --- | --- | --- |
| CCCCCCCCCCCCCCCCCC(=O)OC[C@H](COP(=O)(O)OCC(O)COP(=O)(O)OC[C@@H](COC(=O)CCCCCCCCCCCCCCCCC)OC(=O)CCCCCCCCCCCCCCCCC)OC(=O)CCCCCCCCCCCCCCCCC (stereo partly drawn) [C18:0 CL] | induced | induced | inducing | inducing |  |  |  |
| CCCCCCCCCCCCCC(=O)OC[C@H](COP(=O)(O)OCC(O)COP(=O)(O)OC[C@@H](COC(=O)CCCCCCCCCCCCC)OC(=O)CCCCCCCCCCCCC)OC(=O)CCCCCCCCCCCCC (stereo partly drawn) [C14:0 CL] | induced | induced |  |  | induced | induces | induces |

— article PMC6697720, “Saturation of acyl chains converts cardiolipin from an antagonist to an activator of Toll-like receptor-4” (Cellular and Molecular Life Sciences: CMLS, 2019)
